The record followed here is patent US20240335404A1, “SUBSTITUTED ESTERS CONTAINING POLYOLS AND SACCHARIDES FOR TREATING HEPATOTOXICITY AND FATTY LIVER DISEASES” (SINEW PHARMA INC., priority 2015, published 2024).

The test system of one data set is HepG2 fatty liver cells. The data set is described as follows: TG content in oleic acid-induced fatty liver cells from HepG2. It is filed as cell-based, human. The settings on record: tested substances 1.0 μM. As for the experimental part: The activity of the various ingredients as described herein, including mannitol and sucralose and others, in reduction of fat content was analyzed by using human hepatoma cell line Hep G2.
HepG2 cell lines (15×10^6 cells) were cultured in DMEM culture No. B, incubated in an incubator with 5% CO2 at 37° C. for 24 hours, cultured in DMEM culture No. C (serum-free medium) for 24 hours, and finally cultured in DMEM culture No. D (containing oleate/albumin complex) for another 48 hours to induce HepG2 cell lines to form fatty liver cells.
HepG2 cell lines were divided into six groups, including: (1) Blank: no treatment; (2) DMSO group: cells from Blank were treated with dimethyl sulfoxide (DMSO); (3) Control: induction with oleic acid to form fatty liver cells; (4) Vehicle group: fatty liver cells formed by induction with oleic acid were treated with DMSO; (5) Positive control: fatty liver cells were treated with silyrnarin; and (6) Test Group: fatty liver cells were treated with various compounds of the present invention.
After incubation for 72 hours, the treated cells from each group were successively washed twice in PBS, and then incubated with 0.5 ml of trypsin/EDTA for 3 minutes. Afterwards, the cells were scraped with 2 ml of PBS and then transferred to the centrifuge tube to be shattered by ultrasonic. A volume of 20 μl cell extracts was taken to determine the content of protein. TG determination was performed using commercially available combination of agents (Randox). The TG content obtained above was divided by the protein content to get a ratio, which represented the relative content of TG in cells.
The equation for calculating reduction rate (%) of TG was as follows: [1−(TG content of Test Group−TG content of Blank)/(TG content of Oleic acid induction Group−TG content of Blank)]×100%.

Data set [1] concerns Liver Injuries Induced by APAP. As to the kind of experiment: Liver injuries induced by APAP in rats (GSP, AST/ALT, HAI, survival). It is filed as in vivo, SD (Sprague-Dawley) rats. The settings on record: APAP 2,000 mg/kg, 140 mg/kg of NAC followed by 5 × 70 mg/kg NAC at 4 h intervals. As for the experimental part:
Male SD (Sprague-Dawley) rats weighing 175-280 g were purchased from the National Laboratory Animal Center (NLAC), Taiwan. The study was conducted in accordance with the Guidelines for Conducting Animal Studies of the National Health Research Institute and all rats were placed in the air/humidity controlled environment under the 12 hours of day/12 hours of night cycle and with unlimited water and food supply. During the course of the study, the weights of rats were monitored continuously with normal water supply.
In the normal control (Group 1), animals were not fed with APAP. In the control group of APAP-induced liver injuries (Group 2), animals were fed with a single dose of APAP in the amount of 2,000 mg per kilogram of body weight to induce hepatotoxicity. In the positive control group of treatment with NAC (Group 3), animals were fed with a single dose of APAP in the amount of 2,000 mg per kilogram of body weight to induce hepatotoxicity, and 4 hours later, a 24-hour treatment period by tube feeding was started, including first administration of 140 mg of NAC (per kilogram of body weight) and later administration of 70 mg of NAC (per kilogram of body weight) every 4 hours for five times. In the experimental group (Group 4), animals were fed with a single dose of APAP in the amount of 2,000 mg per kilogram of body weight to induce hepatotoxicity, and 4 hours later, a 24-hour treatment period by tube feeding was started, including six dosing with the ingredients of the present invention every 4 hours, as follows: • (a) (Group 4.1): administration of mannitol at a dose less than or equivalent to 100 mg per person every 4 hours for 24 hours, • (b) (Group 4.2): administration of double dose of mannitol as in Group 4.1 every 4 hours for 24 hours, • (c) (Group 4.3): administration of sucralose at a dose less than or equivalent to 100 mg per person every 4 hours for 24 hours, • (d) (Group 4.4): administration of double dose of sucralose of Group 4.3 every 4 hours for 24 hours, • (e) (Group 4.5): administration of a combination of 0.5 times the dose of mannitol as in Group 4.1 and 0.5 times the dose of sucralose as in Group 4.3 per kilogram of body weight every 4 hours for 24 hours, • (f) (Group 4.6): administration of a combination of the dose of mannitol as in Group 4.1 and the dose of sucralose as in Group 4.3 every 4 hours for 24 hours, • (g) (Group 4.7): administration of a combination of 1.5 times the dose of mannitol as in Group 4.1 and 1.5 times the dose of sucralose as in Group 4.3 every 4 hours for 24 hours, • (h) (Group 4.8): administration of a combination of double dose of mannitol as in Group 4.1 and double dose of sucralose as in Group 4.3 every 4 hours for 24 hours, and • (i) (Group 4.9): first administration of 140 mg of NAC per kilogram of body weight and later administration of a combination of 70 mg of NAC plus double dose of mannitol as in Group 4.1 and double dose of sucralose as in Group 4.3 every 4 hours for five times.
After the 24-hour treatment period, blood was collected from the tail artery of the rats for AST/SLT assays. Subsequently, rats were subjected to GSP tests. Finally, rats were sacrificed and histological analysis was performed.
After completion of the treatments, rats were sacrificed under ether anesthesia, and blood was collected from the tail artery of the rats and placed in a test tube containing EDTA. The plasma was centrifuged at 13,000 at 4° C. for 15 minutes and the isolated plasma was transferred to Eppendorf tubes in aliquots and stored at −80° C.
(§1) Liver damage is quantified by measuring plasma AST and ALT activity. AST and ALT are common indicators of hepatotoxicity and are measured by using the Synchron LXi 725 system (Beckman Instruments, U.S.).
Following scarification of the rats, histological analysis was performed.

Data set [2] deals with Liver Injuries Induced by CCl4. As to the kind of experiment: Liver injuries induced by CCl4 in mice (GSP, AST/ALT, HAI). It is filed as in vivo. The settings on record: CCl4-induced liver injuries; dose less than or equivalent to 100 mg per person. As for the experimental part:
In the normal control, animals were administered with normal saline by intraperitoneal injection. In the control group of CCl4 induced liver injuries, animals were intraperitoneally injected with 10 ml/kg CCl4 (40% in corn oil) to induce hepatotoxicity. In the experimental group, animals were intraperitoneally injected with 10 ml/kg CCl4 (40% in corn oil) to induce hepatotoxicity, and 4 hours later, different ingredients of the present invention were administered by tube feeding. Blood was collected from the mice before administration with the ingredients of the present invention or at 24 hours after administration with the ingredients of the present invention for AST/ALT assays. Finally, animals were sacrificed at day 2 and blood were collected for AST/ALT assay and histological analysis was performed.
On the other hand, other experimental groups of mice were fed with the ingredients of the present invention for 12 weeks and the mice were subjected to GSP tests.
as §1
Following scarification of the rats, histological analysis was performed. Liver samples were fixed with 10% phosphate-buffered formalin, dehydrated an embedded in paraffin, Sections were prepared in 5 μm thickness and then stained with hematoxylin and eosin and subjected to Periodic acid Schiff stain (PAS). The stained sections were observed under the optic microscope.
After the study was completed, all rats were subjected to GSP test. Rats were i.v. injected with 0.4 g/ml BW galactose solution 0.5 g/kg within 30 seconds and one blood sample was collected at 5, 10, 15, 30, 45 and 60 minutes post injection from the tail vein. Colorimetric galactose dehydrogenase is used to quantify the concentration of galactose and the test concentration ranges from 50 to 1,000 μg/ml. The within-day variation of each concentration is calculated using standard deviation and coefficient of variation (CV) and the maximum allowable coefficient of variation is 10% CV, whereas day-to-day variation is examined by comparing the slope and intercept of calibration curves. The GSP is the blood galactose concentration obtained 60 seconds after stopping the 30-second injection.
All data are represented in mean±standard deviation (SD) and the results are calculated using ANOVA to determine the significance. Statistical Package of the Social Science program (Version 13, SPSS Inc.) is used for calculations followed by post hoc test to examine the least significant difference for multiple comparisons so as to confirm the significant differences between groups and the average difference between groups was significant p<0.05.

The target in the next data set is CYP2E1 (Homo sapiens, UniProt P05181). Conditions: microsomes, 30 min, pH 7.4.
Chain of CYP2E1 (P05181 whole entry): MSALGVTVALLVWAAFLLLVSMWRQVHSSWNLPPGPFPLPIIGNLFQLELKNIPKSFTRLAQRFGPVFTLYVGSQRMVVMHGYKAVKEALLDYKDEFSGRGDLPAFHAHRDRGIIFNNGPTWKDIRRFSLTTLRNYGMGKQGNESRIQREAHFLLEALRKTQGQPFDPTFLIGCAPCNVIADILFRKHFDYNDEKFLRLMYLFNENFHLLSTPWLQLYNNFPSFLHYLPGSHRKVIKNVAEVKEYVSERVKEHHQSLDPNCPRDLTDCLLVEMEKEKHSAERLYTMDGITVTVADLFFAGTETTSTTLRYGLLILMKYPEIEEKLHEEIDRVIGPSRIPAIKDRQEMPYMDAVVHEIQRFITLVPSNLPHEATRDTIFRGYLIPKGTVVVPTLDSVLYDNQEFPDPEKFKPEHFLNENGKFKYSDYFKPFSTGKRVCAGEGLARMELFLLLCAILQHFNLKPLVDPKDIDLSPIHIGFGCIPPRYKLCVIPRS

Where two headings read alike, the source gives them in different places.

Protocol for CYP2E1: After addition of the test sample, the amount of CYP450 isozyme metabolite standard 6-OH-CZX (6-Hydroxy-Chlorzoxazone) is specific used for calculation of the CYP450 isozyme (CYP2E1) inhibition ratio of the test sample by using the amount of 6-OH-CZX of the control group as the baseline.
All samples were tested in triplicate. To determine the percentage inhibition, each test compound was dissolved in 1, 2, 4 μg/mL to three different concentrations. The CYP2E1 activity levels in the presence of the test compounds were compared with the control incubations. The 500-μL reaction mixture, containing 0.5 mg of microsomal protein, was incubated with 320 μM CZX in the presence of 5 mM MgCl2 and 1 mM NADPH in 50 mM phosphate buffer with pH 7.4 at 37° C. for 30 min. The reaction was terminated by ice-cold acetonitrile, and then 4-hydroxyl tolbutamide was added as an internal standard. The organic phase was evaporated to dryness and reconstituted into the mobile phase (methanol:water=1:1) prior to liquid chromatography-tandem mass spectrometry (LC-MS/MS) analysis. An API 3000 triple-quadrupole mass spectrometer equipped with an ion-spray (ESI) source was used to determine 6-OH-CZX in the human liver microsomes. The ESI interface was used in the positive-ion mode. The 6-OH-CZX was monitored at a transition of m/z 284.5→185.9.
The CYP450 isozyme activity levels in the presence of the test compounds were compared with the control incubations.

With `COc1ccc([C@@H]2CC(=O)c3c(O)cc(O[C@@H]4O[C@H](CO[C@@H]5O[C@@H](C)[C@H](O)[C@@H](O)[C@H]5O)[C@@H](O)[C@H](O)[C@H]4O)cc3O2)cc1O` [Hesperidin], the “TG reduction rate (%)” value in the data set with HepG2 fatty liver cells was 34.81 ± 5.25%.

Consider `COc1ccc(O)c(C(C)(C)C)c1` [Butylated hydroxyanisole], for which the “TG reduction rate (%)” value in the data set with HepG2 fatty liver cells worked out at 6.21 ± 3.8%. As to `COc1ccc(-c2cc(=O)c3c(O)cc(O)c(-c4cc(-c5cc(=O)c6c(O)cc(OC)cc6o5)ccc4OC)c3o2)cc1` [Sciadopitysin], the “TG reduction rate (%)” value with HepG2 fatty liver cells is listed as 21.83 ± 5.04%. On to (−)-Epicatechin-3-gallate, for which the “TG reduction rate (%)” value in the data set on HepG2 fatty liver cells is 32.7 ± 4.33%. `COc1ccc([C@@H]2CC(=O)c3c(O)cc(O[C@@H]4O[C@H](CO)[C@@H](O)[C@H](O)[C@H]4O[C@@H]4O[C@@H](C)[C@H](O)[C@@H](O)[C@H]4O)cc3O2)cc1O` [Neohesperidin]: the “TG reduction rate (%)” value in the data set with HepG2 fatty liver cells was 13.29 ± 7.21%. Turning to `CC(=O)N[C@@H](CS)C(=O)O` [NAC, N-acetylcysteine, reference compound], in data set [1], the ALT came out at 221 ± 69 IU/L, the AST amounted to 428 ± 74 IU/L, the GSP is reported as 393 ± 68 mg/L and the “Total HAI score” value is 4.2 ± 0.8. In addition, in data set [1] (Day 14), the “Survival (Day 14, n/n)” value is listed as 3/6.

For `Oc1cc(O)c2c(c1)O[C@H](c1ccc(O)c(O)c1)[C@@H](O)C2` [(+)-Catechin], in the data set with HepG2 fatty liver cells, the “TG reduction rate (%)” value turned out to be 29.57 ± 4.02%. The same measure, in the same setting: next, `O=C(O)c1ccc(O)c(O)c1` [Protocatechuic acid]: 18.57 ± 7.6%. In the case of `Oc1cc(O)c2c(c1)O[C@H](c1ccc(O)c(O)c1)[C@H](O)C2` [(−)-Epicatechin], the “TG reduction rate (%)” value in the data set with HepG2 fatty liver cells is 10.76 ± 8.92%. As for `O=c1c(O)c(-c2ccc(O)c(O)c2)oc2c(O[C@@H]3O[C@H](CO)[C@@H](O)[C@H](O)[C@H]3O)c(O)cc(O)c12` [Gossypin], the “TG reduction rate (%)” value in the data set with HepG2 fatty liver cells was 20.25 ± 4.63%. In the case of `O=C([O-])c1ccccc1.[Na+]` [Sodium benzoate], the “TG reduction rate (%)” value with HepG2 fatty liver cells was found to be 14.35 ± 4.86%. Same read-out and setting: next, `COc1ccc(-c2cc(=O)c3c(O)cc(O[C@@H]4O[C@H](CO[C@@H]5O[C@@H](C)[C@H](O)[C@@H](O)[C@H]5O)[C@@H](O)[C@H](O)[C@H]4O)cc3o2)cc1` [Linarin]: 9.24 ± 12.34%; `O=c1cc(-c2ccc(O)c(O)c2)oc2cc(O[C@@H]3O[C@H](CO)[C@@H](O)[C@H](O)[C@H]3O)cc(O)c12` [Luteolin-7-glucoside]: 19.33 ± 4.59%. As to `O=c1c(O)c(-c2ccc(O)cc2)oc2cc(O)cc(O)c12` [Kaempferol], in data set [2], the ALT was 128 ± 40 IU/L, the AST was found to be 198 ± 105 IU/L and the GSP is recorded as 456 ± 101 mg/L. For the compound `O=c1c(O)c(-c2ccc(O)c(O)c2)oc2cc(O)cc(O)c12` [quercetin], in data set [2], the ALT was 93 ± 26 IU/L, the AST is recorded as 115 ± 40 IU/L, the GSP is recorded as 286 ± 70 mg/L and the “Total HAI score” value is 1.1 ± 0.7. As to `C[C@@H]1O[C@@H](Oc2c(-c3ccc(O)c(O)c3)oc3cc(O)cc(O)c3c2=O)[C@H](O)[C@H](O)[C@H]1O` [Quercitrin], the “TG reduction rate (%)” value in the data set with HepG2 fatty liver cells was 9.15 ± 9.24%.

As to `Oc1cc(O)c2c(c1)O[C@H](c1cc(O)c(O)c(O)c1)[C@H](O)C2` [(−)-Epigallocatechin], the “TG reduction rate (%)” value with HepG2 fatty liver cells turned out to be 36.78 ± 6.67%. Same read-out and setting: next, `COc1ccc([C@@H]2CC(=O)c3c(O)cc(O[C@@H]4O[C@H](CO[C@@H]5O[C@@H](C)[C@H](O)[C@@H](O)[C@H]5O)[C@@H](O)[C@H](O)[C@H]4O)cc3O2)cc1` [Didymin]: 20.37 ± 12.69%. Take epigallocetechin-3-gallate: in data set [2], the ALT was found to be 95 ± 36 IU/L, the AST is recorded as 144 ± 49 IU/L, the GSP was 312 ± 140 mg/L and the “Total HAI score” value turned out to be 1.7 ± 0.9.

`COc1c(O)cc(O)c2c(=O)cc(-c3ccccc3)oc12` [Wongonin]: the “TG reduction rate (%)” value with HepG2 fatty liver cells is 20.78 ± 1.12%.

With `O=S(=O)([O-])NC1CCCCC1.[Na+]` [Sodium cyclamate], the “TG reduction rate (%)” value in the data set on HepG2 fatty liver cells is 4.77 ± 4.49%.

As to `CCN(CC)C(=S)S` [DDTC, Diethyldithiocarbamic acid], the “CYP 2E1 inhibition ratio (%)” value on CYP2E1 (10 μM) was 11.2 ± 2.4%; at CYP2E1 (50 μM), 51.2 ± 3.2%.
